For one experiment, the system named is 293T cells. The experiment can be described thus: qRT-PCR relative transcript levels of ANKRD1 and ANOS (FIG. 22, 23). The following applies: vs control cells. It counts as cell-based, human. The method, then: (§1) To validate microarray results, quantitative 2-step RT-PCR was performed. One microgram of total RNA was reverse transcribed to first-strand cDNA with the Qiagen cDNA Synthesis Kit (Qiagen), and this cDNA was subsequently used as a template for quantitative PCR with gene-specific primers. The ubiquitous β-actin gene served as a control for constitutive gene expression. The quantitative RT-PCR (qRT-PCR) reactions were performed using Power Sybr Green PCR Master Mix (Thermo Fisher Scientific) on a CFX96 Touch Real-Time PCR Detection System (Bio-Rad, Hercules, CA, USA). Relative expression levels (2^−ΔCt) were calculated according to the Livak and Schmittgen method (40). Expression levels of each gene were compared with the expression level of actin.
Background: In qPCR the cycle at which signal appears reflects the starting amount.

Experiment [1] relates to human embryonic kidney cells (293T). The experiment can be described thus: Cell proliferation under prolonged MTX/PTX application, with or without HT (FIG. 16). Particulars: for cell proliferation: prolonged, controlled application, 5% dialyzed-FBS DMEM, 500 nM MTX for 7-days. It counts as cell-based. The method, then: The cells were grown in 5% dialyzed-FBS DMEM medium. 293T cells were treated with 500 nM MTX, and HF57 cells and HDF cells were treated with 1 μM MTX for 7-days. Because inhibition of DHFR and TS by folate antagonists (MTX, PTX) results in a deficiency in the cellular pools of thymidylate and purines and thus a decrease in nucleic acid synthesis, sodium hypoxanthine (10 mM) and thymidine (1.6 mM) were added to the medium to overcome the effects of MTX and PTX. […] The cells were harvested for DNA/RNA isolation and analyzed for gene expression and DNA methylation.
MTX and PTX are antifolates that inhibit enzymes (particularly thymidylate synthase and dihydrofolate reductase) involved in folate metabolism and purine and pyrimidine synthesis (100-103). Since these compounds are competitive inhibitors of […], these compounds were exogenously applied to the WT (HEK 293T and HF57) cells. As shown in FIGS. 16-17, application of MTX and PTX to the normal growing WT cells produced the phenotypes similar to the FPGS^ko. Several concentrations of MTX ranging from 75 nM to 500 nM were tested. The impact of MTX depended on the cell lines, exposure time, and the supplemental media. A concentration as low as 75 nM achieved similar results when a lower concentration of FBS was used, and the best results for 293T cells were obtained using MTX at a concentration ranging between 200 nM and 500 nM. Further, the pharmacological impacts of folate inhibitors on global DNA methylation were examined. 293T (control) cells were treated with 500 nM MTX and 1 μM PTX for at least 7 days before harvesting the cells and isolating the genomic DNA (gDNA). Equal amount of gDNA (100 ng) was analyzed with 5mC enzyme-linked immunosorbent assay (ELISA) (EpiGentek).

The test system of another experiment is HF57 cells. The experiment can be described thus: qRT-PCR relative transcript levels (FIG. 21B, FIG. 32). It counts as cell-based, human. Particulars: for transcripts level of DNMT1 / transcripts level of MTHFR / transcripts level of MTR / relative transcripts level of Nanog / relative transcripts level of Oct4 / relative transcripts level of Sox2: FIG. 21B; for relative transcripts level of Nanog / relative transcripts level of Oct4 / relative transcripts level of Sox2: vs control cells. How it is done:
Also, the cells were treated with PTX for 2-days only. Since exposure time of PTX or MTX is very critical for gene expression or other genetic changes, the expression of ANOS could be higher after prolonged exposure to PTX.
as §1
The quiescent nature of the MTX and PTX cells and the association of demethylation with the generation of induced pluripotent stem cells led to examining markers for stem cells formation. The 293T and HF57 cells were grown on 5% dialyzed FBS DMEM medium. DMEM without methionine, DMEM with 15 mg/L (half dose) and DMEM with 30 mg/L (regular DMEM) were used to grow the cells. Once the cells attained 70% confluency, HF57 were treated with 1-μM MTX or PTX and HEK293T were treated with 500 nM MTX or 1 μM PTX. The cells were treated with MTX or PTX for 7-days, and subsequently the medium was replaced with N2B27 medium (Thermo Fisher Scientific, USA). The cells were grown in N2B27 medium for 15 days which supported undifferentiated growth of human embryonic stem cells. Subsequently, these cells were maintained in MTeSR medium supplemented with sodium hypoxanthine and thymidine (HT) for 15 or more days. These conditions supported prolonged self-renewal of putative pluripotent cells, and they were able to form colonies and later embryoid bodies in vitro. Subsequently, the cells were assessed for markers linked to stem cells. Transcriptomics and qRT-PCR were performed to examine whether ES cell marker genes were expressed in these cells. Both MTX and PTX treated cells expressed the marker genes (FIGS. 20-21 and 25-26). […] To authenticate these findings, two key pluripotency markers (SSEA-4 and TRA 1-60) were examined using immunofluorescence.

The test system of experiment [2] is human fibroblast (HF57) cells. The experiment can be described thus: Immunofluorescence of pluripotency surface markers (FIG. 25, 26). The following applies: for SSEA-4 and TRA 1-60 surface markers immunofluorescence: 1 μM for 7 days, DMEM with low methionine (15 mg/L). The format is cell-based. The method, then: Post MTX treatment, the cells were labeled using primary antibodies (ant-SSEA4-anti mouse IgG3) followed by secondary antibodies conjugated to Alexa Fluor 488 goat anti-mouse IgG3. The cells were counterstained with DAPI. […] The cells were grown in regular DMEM medium with or without MTX. Scale Bar=400 μM.
Post MTX treatment, the cells were labeled using primary antibodies (anti-SSEA4-anti mouse IgG3 and anti-TRA 1-60 host-rabbit) followed by secondary antibodies conjugated to (Alexa Fluor 488 goat anti-mouse IgG3 and Alexa Fluor 594 donkey anti-rabbit). The cells were counterstained with DAPI. […] The cells were grown in DMEM medium with low methionine (15 mg/L). Scale Bar=400 μM (FIG. 26A); Scale Bar=200 μM (FIG. 26B).
Immunofluorescence analysis: The relative optimal image-based analysis of 2 key human pluripotent stem cells markers [octamer-binding transcription factor 4 (OCT4) and stage-specific embryonic antigen 4 (SSEA4)] was performed using the Pluripotent Stem Cell Immunocytochemistry Kit (Thermo Fisher Scientific) according to the manufacturer's instructions. Briefly, the cells were grown in 10% FBS DMEM supplemented with NEAAs and Glutamax in wells coated with 0.1% gelatin. For immunofluorescence localization, the cells were stained for SSEA4 and Oct4 and counterstained with DAPI using the kit (Thermo Fisher Scientific). The endogenous proteins were labeled using primary antibodies (anti-SSEA4 anti-mouse IgG3 and anti-OCT4 host-rabbit) followed by secondary antibodies conjugated to Alexa Fluor 488 goat anti-mouse IgG3 and Alexa Fluor 594 donkey anti-rabbit.
The quiescent nature of the MTX and PTX cells and the association of demethylation with the generation of induced pluripotent stem cells led to examining markers for stem cells formation. The 293T and HF57 cells were grown on 5% dialyzed FBS DMEM medium. DMEM without methionine, DMEM with 15 mg/L (half dose) and DMEM with 30 mg/L (regular DMEM) were used to grow the cells. […] Subsequently, the cells were assessed for markers linked to stem cells. […]

“Also recorded” adds a separate entry of the source.

Turning to `CN(Cc1cnc2nc(N)nc(N)c2n1)c1ccc(C(=O)N[C@@H](CCC(=O)O)C(=O)O)cc1` [MTX, methotrexate], in the experiment with 293T cells, the “relative transcripts level of ANOS” value is listed as “significantly higher” and the “relative transcripts level of Ankyrin repeat domain 1 (ANKRD1)” value is listed as “significantly higher”. In addition, the cell proliferation entry in experiment [1] is “reduced cell proliferation”. Also, the “concentration as low as which achieved similar results” value in experiment [1] (when a lower concentration of FBS was used) is reported as 75 nM. Also, in the experiment with HF57 cells, the “transcripts level of DNMT1” value is on record as “significantly reduced”, the “transcripts level of MTHFR” value is “significantly reduced”, the “transcripts level of MTR” value is on record as “significantly reduced” and the “relative transcripts level of Nanog” value was “significantly higher”. In addition, in the experiment with HF57 cells, the “relative transcripts level of Oct4” value is “significantly higher” and the “relative transcripts level of Sox2” value is listed as “significantly higher”. The “SSEA-4 surface antigen immunofluorescence” value in experiment [2] (1 μM for 9-days, regular DMEM, no signals in control cells) is reported as “expression of SSEA-4 surface antigens”. Moreover, in experiment [2], the “SSEA-4 and TRA 1-60 surface markers immunofluorescence” value is “high levels of SSEA-4 and TRA 1-60; also recorded: expression of SSEA-4 and TRA 1-60 surface antigens”.

For the compound `Nc1nc2[nH]cc(CCc3ccc(C(=O)N[C@@H](CCC(=O)O)C(=O)O)cc3)c2c(=O)[nH]1` [PTX, pemetrexed], in the experiment on 293T cells, the “relative transcripts level of ANOS” value is given as “significantly higher” and the “relative transcripts level of Ankyrin repeat domain 1 (ANKRD1)” value is “significantly higher”. Also, the cell proliferation result in experiment [1] is reported as “reduced cell proliferation”. In the experiment on HF57 cells, the “transcripts level of DNMT1” value is recorded as “significantly reduced”, the “transcripts level of MTHFR” value was “significantly reduced”, the “transcripts level of MTR” value is “significantly reduced” and the “relative transcripts level of Nanog” value was “significantly higher”. Further, in the experiment on HF57 cells, the “relative transcripts level of Oct4” value is listed as “significantly higher” and the “relative transcripts level of Sox2” value is listed as “significantly higher”. Moreover, in the experiment with HF57 cells (treated for 2-days), the “expression of ANKRD1” value was “significantly higher than control” and the “expression of ANOS” value is recorded as “significantly higher than control”. In experiment [2], the “SSEA-4 and TRA 1-60 surface markers immunofluorescence” value is “expression of SSEA-4 and TRA 1-60 surface markers”.

(Values after patent US20250171744A1, “METHODS OF REPROGRAMMING SOMATIC CELLS AND MATERIALS RELATED THERETO” (CITY OF HOPE, priority 2019, published 2025).)
